Values of other authors in US20180311274A1, “IN SITU NEUTRALIZATION COMPOSITION” (Kramer Laboratories, Inc., priority 2017, published 2018).

solubility in water: practically insoluble
Structure (SMILES): Cc1cccc(N(C)C(=S)Oc2ccc3ccccc3c2)c1 [Tolnaftate]
